Results as given in ChEMBL document CHEMBL1143317, “Efficient synthesis and biological evaluation of 1,2,9-trisubstituted 1,9-dihydro-6H-purin-6-ones” (Bioorg Med Chem Lett, 2009).

Tests used:
Format in all cases: functional, cell-based
OVCAR-3 = experiment: Cytotoxicity against human OVCAR-3 cells after 72 hrs by MTT assay; settings: OVCAR-3, 72 h
KB = experiment: Cytotoxicity against human KB cells after 72 hrs by MTT assay
HepG2 = experiment: Cytotoxicity against human HepG2 cells after 72 hrs by MTT assay; settings: HepG2, 72 h

Row | Compound | IC50 (OVCAR-3) | IC50 (KB) | IC50 (HepG2)
1 | CCCCN(CCCC)c1nc2c(ncn2-c2ccccc2)c(=O)n1-c1ccccc1 | 10 µM | 9.5 µM | 20.4 µM
2 | CCCCCN(CCCCC)c1nc2c(ncn2-c2ccccc2)c(=O)n1-c1ccc(Cl)cc1 | > 100 µM | 10.6 µM | > 100 µM
3 | CNc1nc2c(ncn2-c2ccccc2)c(=O)n1-c1ccccc1 | > 100 µM | > 100 µM | > 100 µM
4 | CCNc1nc2c(ncn2-c2ccccc2)c(=O)n1-c1ccccc1 | > 100 µM | > 100 µM | > 100 µM
5 | CNc1nc2c(ncn2-c2ccccc2)c(=O)n1-c1ccc(Cl)cc1 | > 100 µM | > 100 µM | > 100 µM
6 | CCCCNc1nc2c(ncn2-c2ccccc2)c(=O)n1-c1ccc(Cl)cc1 | 94.8 µM | 37.7 µM | 77.6 µM
7 | CC(C)N(c1nc2c(ncn2-c2ccccc2)c(=O)n1-c1ccccc1)C(C)C | > 100 µM | 53.5 µM | > 100 µM
8 | CN(C)c1nc2c(ncn2-c2ccccc2)c(=O)n1-c1ccccc1 | > 100 µM | 83.8 µM | > 100 µM
9 | O=c1c2ncn(-c3ccccc3)c2nc(NCc2ccccc2)n1-c1ccc(Cl)cc1 | 46.7 µM | 34.3 µM | 62.1 µM
10 | O=c1c2ncn(-c3ccccc3)c2nc(N2CCCCC2)n1-c1ccc(Cl)cc1 | > 100 µM | 72.8 µM | > 100 µM
